Values after ≈ are worked out from the molar mass of the structure shown. Read-outs that look alike come from different tables or passages of the source.
Test system: human non-small cell lung cancer (NSCLC) A549 cells
Assay: MTT cell viability assay, lung cancer cells
Assay type: cell-based
Experimental: The human non-small cell lung cancer (NSCLC) A549 cells were cultured in RPMI 1640 culture medium supplemented with 10% fetal bovine serum (FBS) and 1% penicillin/streptomycin in a incubator at 37° C. in a 5% CO2. Human normal fibroblast lung cell Wi38 were cultured in MEM culture medium supplemented with 10% FBS and 1% penicillin/streptomycin.
The cell viability rate was measured using MTT [3-(4,5-dimethylthiazol-2-yl)-2,5-diphenyl-tetrazolium bromide] assay. Specifically, lung cancer cells (A549, 7×10^3 cells/well), colon cancer cells (HCT-15, 5×10^3 cells/well), liver cancer cells (Sk-hep-1, 5×10^3 cells/well), pancreatic cancer cells (PANC-1, 5×10^3 cells/well), and breast cancer cells (MCF-7, 2×10^3 cells/well) were seeded in a 96-well culture plate at 3 times repeatedly, and cultured overnight at 37° C. in 5% CO2 with RPMI 1640 medium containing 10% FBS. Subsequently, the cell-free supernatant was added to each well at concentrations of 1×, 2×, 5×, and 10×, with 100 μL per well, and cultured for 24 hours at 37° C. in 5% CO2.
To assess cell apoptosis, MTT reagent at a concentration of 5 mg/ml was added to each well with 10 μL per well and reacted for 4 hours at 37° C. in 5% CO2. The cells were then dissolved in dimethyl sulfoxide (DMSO, 100 μL/well), and the absorbance at 570 nm was measured using a microplate reader.
The cell viability rate was calculated as a percentage using the following formula. The cell toxicity test was conducted in triplicate, and the values are presented as mean±standard deviation.
To confirm the efficacy of Cyclo(L-pro-L-tyr), the active ingredient of Enterococcus faecium LCM001, as well as its derivatives on apoptosis of non-small cell lung cancer A549 cells, the inventors conducted an MTT assay on Cyclo(L-pro-L-tyr), Cyclo(L-Phe-L-pro), Cyclo(L-Phe-trans-4-hydroxy-L-Pro), Cyclo(L-Pro-D-Phe), and Cyclo(Tyr-Hpro), and calculated their IC50 values.

Structure (SMILES) | IC50 | IC50 (Homo sapiens, read-out: IC50)
O=C1N[C@@H](Cc2ccccc2)C(=O)N2C[C@H](O)C[C@@H]12 (relative stereo) [Cyclo(L-Phe-trans-4-hydroxy-L-Pro)] | 57.58 µg/mL (≈ 221 µM) | –
O=C1N[C@@H](Cc2ccccc2)C(=O)N2CCC[C@@H]12 [Cyclo(L-Phe-L-pro)] | 26.1 µg/mL (≈ 107 µM) | –
O=C1NC(Cc2ccccc2)C(=O)N2CCCC12 [Cyclo(L-Pro-D-Phe)] | 94.56 µg/mL (≈ 387 µM) | –
O=C1NC(Cc2ccc(O)cc2)C(=O)N2CCC[C@@H]12 (stereo partly drawn) [Cyclo(L-pro-L-tyr), Cyclo(L-Pro-L-Tyr)] | – | 99.6 µg/mL (≈ 382 µM)
O=C1NC(Cc2ccc(O)cc2)C(=O)N2CC(O)CC12 (centres unmarked) [Cyclo(Tyr-Hpro)] | 119 µg/mL (≈ 431 µM) | –

Reference: US20240408152A1, “NOVEL ENTEROCOCCUS FAECIUM LCM001 STRAIN, AND USE THEREOF” (MBIOMETHERAPEUTICS CO., LTD., priority 2021, published 2024)
